Experimental data taken from PubChem BioAssay (NCI).
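Where inhibition never reached the appropriate level, the endpoint shown equals the highest concentration tested. Otherwise, values were interpolated linearly from a five-concentration, 48-hour dose response in 96-well plates. GI50 = concentration required for 50% inhibition of growth. TGI denotes the concentration required for complete inhibition of growth.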

How the values were obtained:
Assay in all cases: NCI tumour cell line growth inhibition, 48 h
A498 renal = system: A498 renal
A549 NSCLC = system: A549 NSCLC
ACHN renal = system: ACHN renal
CAKI-1 renal = system: CAKI-1 renal
CCRF-CEM leukemia = system: CCRF-CEM leukemia
COLO 205 colon = system: COLO 205 colon
DU-145 prostate = system: DU-145 prostate
EKVX NSCLC = system: EKVX NSCLC
HCC-2998 colon = system: HCC-2998 colon
HCT-116 colon = system: HCT-116 colon
HCT-15 colon = system: HCT-15 colon
HL-60(TB) leukemia = system: HL-60(TB) leukemia
HOP-62 NSCLC = system: HOP-62 NSCLC
HOP-92 NSCLC = system: HOP-92 NSCLC
HS 578T breast = system: HS 578T breast
HT29 colon = system: HT29 colon
IGROV1 ovarian = system: IGROV1 ovarian
K-562 leukemia = system: K-562 leukemia
KM12 colon = system: KM12 colon
LOX IMVI melanoma = system: LOX IMVI melanoma
M14 melanoma = system: M14 melanoma
MALME-3M melanoma = system: MALME-3M melanoma
MCF7 breast = system: MCF7 breast
MDA-MB-231 breast = system: MDA-MB-231 breast
MDA-MB-435 = system: MDA-MB-435
MOLT-4 leukemia = system: MOLT-4 leukemia
NCI-H226 lung = system: NCI-H226 lung
NCI-H23 lung = system: NCI-H23 lung
NCI-H460 lung = system: NCI-H460 lung
NCI-H522 lung = system: NCI-H522 lung
NCI/ADR-RES ovarian = system: NCI/ADR-RES ovarian
OVCAR-3 ovarian = system: OVCAR-3 ovarian
OVCAR-4 ovarian = system: OVCAR-4 ovarian
OVCAR-5 ovarian = system: OVCAR-5 ovarian
OVCAR-8 ovarian = system: OVCAR-8 ovarian
PC-3 prostate = system: PC-3 prostate
RPMI-8226 leukemia = system: RPMI-8226 leukemia
RXF 393 renal = system: RXF 393 renal
SF-268 CNS = system: SF-268 CNS
SF-295 CNS = system: SF-295 CNS
SF-539 CNS = system: SF-539 CNS
SK-MEL-2 melanoma = system: SK-MEL-2 melanoma
SK-MEL-28 melanoma = system: SK-MEL-28 melanoma
SK-MEL-5 melanoma = system: SK-MEL-5 melanoma
SN12C renal = system: SN12C renal
SNB-19 CNS = system: SNB-19 CNS
SNB-75 CNS = system: SNB-75 CNS
SR leukemia = system: SR leukemia
SW-620 colon = system: SW-620 colon
T-47D breast = system: T-47D breast
TK-10 renal = system: TK-10 renal
U251 CNS = system: U251 CNS
UACC-257 melanoma = system: UACC-257 melanoma
UACC-62 melanoma = system: UACC-62 melanoma
UO-31 renal = system: UO-31 renal

O=C(Nc1ccc(-n2ccc3c(NC(=O)c4ccccc4)nccc32)cc1)Nc1cccc(C(F)(F)F)c1
GI50 (A498 renal): 6.39 µM
TGI (A498 renal): 21 µM
GI50 (A549 NSCLC): 3.25 µM
TGI (A549 NSCLC): 10.9 µM
GI50 (ACHN renal): 5.72 µM
TGI (ACHN renal): 19.6 µM
GI50 (CAKI-1 renal): 10.8 µM
TGI (CAKI-1 renal): 37.4 µM
GI50 (CCRF-CEM leukemia): 1.27 µM
TGI (CCRF-CEM leukemia): 5.55 µM
GI50 (COLO 205 colon): 6.19 µM
TGI (COLO 205 colon): 19.6 µM
GI50 (DU-145 prostate): 4.2 µM
TGI (DU-145 prostate): 14.8 µM
GI50 (EKVX NSCLC): 5.73 µM
TGI (EKVX NSCLC): 22.1 µM
GI50 (HCC-2998 colon): 7.46 µM
TGI (HCC-2998 colon): 22.4 µM
GI50 (HCT-116 colon): 2.91 µM
TGI (HCT-116 colon): 10.1 µM
GI50 (HCT-15 colon): 1.03 µM
TGI (HCT-15 colon): 6.55 µM
GI50 (HL-60(TB) leukemia): 3.92 µM
TGI (HL-60(TB) leukemia): 14.2 µM
GI50 (HOP-62 NSCLC): 5.65 µM
TGI (HOP-62 NSCLC): 19.1 µM
GI50 (HOP-92 NSCLC): 2.59 µM
TGI (HOP-92 NSCLC): 11.7 µM
GI50 (HS 578T breast): 6.39 µM
TGI (HS 578T breast): 40 µM
GI50 (HT29 colon): 1.85 µM
TGI (HT29 colon): 4.93 µM
GI50 (IGROV1 ovarian): 10 µM
TGI (IGROV1 ovarian): 30.9 µM
GI50 (K-562 leukemia): 2.68 µM
TGI (K-562 leukemia): 10.5 µM
GI50 (KM12 colon): 0.41 µM
TGI (KM12 colon): 11.3 µM
GI50 (LOX IMVI melanoma): 2.38 µM
TGI (LOX IMVI melanoma): 10.9 µM
GI50 (M14 melanoma): 3.83 µM
TGI (M14 melanoma): 15.7 µM
GI50 (MALME-3M melanoma): 13.7 µM
TGI (MALME-3M melanoma): 31.2 µM
GI50 (MCF7 breast): 6.61 µM
TGI (MCF7 breast): 24.8 µM
GI50 (MDA-MB-231 breast): 4.65 µM
TGI (MDA-MB-231 breast): 18.1 µM
GI50 (MDA-MB-435): 4.57 µM
TGI (MDA-MB-435): 21.3 µM
GI50 (MOLT-4 leukemia): 2.65 µM
TGI (MOLT-4 leukemia): 10.9 µM
GI50 (NCI-H226 lung): 14.3 µM
TGI (NCI-H226 lung): 29.8 µM
GI50 (NCI-H23 lung): 3.28 µM
TGI (NCI-H23 lung): 17.6 µM
GI50 (NCI-H460 lung): 2.74 µM
TGI (NCI-H460 lung): 13.4 µM
GI50 (NCI-H522 lung): 1.69 µM
TGI (NCI-H522 lung): 15.3 µM
GI50 (NCI/ADR-RES ovarian): 10.9 µM
TGI (NCI/ADR-RES ovarian): 28.7 µM
GI50 (OVCAR-3 ovarian): 2.93 µM
TGI (OVCAR-3 ovarian): 7.15 µM
GI50 (OVCAR-4 ovarian): 2.65 µM
TGI (OVCAR-4 ovarian): 10.5 µM
GI50 (OVCAR-5 ovarian): 8.72 µM
TGI (OVCAR-5 ovarian): 22.2 µM
GI50 (OVCAR-8 ovarian): 4.35 µM
TGI (OVCAR-8 ovarian): 17.9 µM
GI50 (PC-3 prostate): 1.8 µM
TGI (PC-3 prostate): 8.56 µM
GI50 (RPMI-8226 leukemia): 1.64 µM
TGI (RPMI-8226 leukemia): 4.81 µM
GI50 (RXF 393 renal): 2.24 µM
TGI (RXF 393 renal): 7.64 µM
GI50 (SF-268 CNS): 10.5 µM
TGI (SF-268 CNS): 30.2 µM
GI50 (SF-295 CNS): 3.75 µM
TGI (SF-295 CNS): 18.8 µM
GI50 (SF-539 CNS): 1.75 µM
TGI (SF-539 CNS): 18.4 µM
GI50 (SK-MEL-2 melanoma): 15 µM
TGI (SK-MEL-2 melanoma): 30.3 µM
GI50 (SK-MEL-28 melanoma): 7.36 µM
TGI (SK-MEL-28 melanoma): 21 µM
GI50 (SK-MEL-5 melanoma): 7.2 µM
TGI (SK-MEL-5 melanoma): 20.7 µM
GI50 (SN12C renal): 13.4 µM
TGI (SN12C renal): 27 µM
GI50 (SNB-19 CNS): 11.1 µM
TGI (SNB-19 CNS): 26.8 µM
GI50 (SNB-75 CNS): 7.67 µM
TGI (SNB-75 CNS): 23.3 µM
GI50 (SR leukemia): 1.49 µM
TGI (SR leukemia): 4.28 µM
GI50 (SW-620 colon): 4.96 µM
TGI (SW-620 colon): 18.9 µM
GI50 (T-47D breast): 11.1 µM
TGI (T-47D breast): 31 µM
GI50 (TK-10 renal): 3.87 µM
TGI (TK-10 renal): 18.8 µM
GI50 (U251 CNS): 2.04 µM
TGI (U251 CNS): 10.8 µM
GI50 (UACC-257 melanoma): 11.2 µM
TGI (UACC-257 melanoma): 26 µM
GI50 (UACC-62 melanoma): 7.36 µM
TGI (UACC-62 melanoma): 20.4 µM
GI50 (UO-31 renal): 13.4 µM
TGI (UO-31 renal): 31.7 µM

COc1ccc(-c2nn(-c3ccc(NC(=O)c4cc(Cl)cc(Cl)c4)cc3)cc2-c2ccncc2)cc1Cl
GI50 (A498 renal): 3.04 µM
TGI (A498 renal): > 100 µM
GI50 (A549 NSCLC): > 100 µM
TGI (A549 NSCLC): > 100 µM
GI50 (ACHN renal): > 100 µM
TGI (ACHN renal): > 100 µM
GI50 (CAKI-1 renal): 3.04 µM
TGI (CAKI-1 renal): > 100 µM
GI50 (COLO 205 colon): > 100 µM
TGI (COLO 205 colon): > 100 µM
GI50 (DU-145 prostate): > 100 µM
TGI (DU-145 prostate): > 100 µM
GI50 (HCC-2998 colon): > 100 µM
TGI (HCC-2998 colon): > 100 µM
GI50 (HCT-116 colon): 7 µM
TGI (HCT-116 colon): > 100 µM
GI50 (HCT-15 colon): 1.77 µM
TGI (HCT-15 colon): > 100 µM
GI50 (HL-60(TB) leukemia): 3.41 µM
TGI (HL-60(TB) leukemia): > 100 µM
GI50 (HOP-62 NSCLC): 8.12 µM
TGI (HOP-62 NSCLC): > 100 µM
GI50 (HT29 colon): 2.26 µM
TGI (HT29 colon): > 100 µM
GI50 (IGROV1 ovarian): > 100 µM
TGI (IGROV1 ovarian): > 100 µM
GI50 (K-562 leukemia): 1.86 µM
TGI (K-562 leukemia): > 100 µM
GI50 (KM12 colon): 4.29 µM
TGI (KM12 colon): > 100 µM
GI50 (LOX IMVI melanoma): 3.2 µM
TGI (LOX IMVI melanoma): > 100 µM
GI50 (M14 melanoma): 2.4 µM
TGI (M14 melanoma): 9.08 µM
GI50 (MCF7 breast): > 100 µM
TGI (MCF7 breast): > 100 µM
GI50 (MDA-MB-231 breast): 1.39 µM
TGI (MDA-MB-231 breast): 4.85 µM
GI50 (MDA-MB-435): > 100 µM
TGI (MDA-MB-435): > 100 µM
GI50 (MOLT-4 leukemia): 2.83 µM
TGI (MOLT-4 leukemia): > 100 µM
GI50 (NCI-H226 lung): > 100 µM
TGI (NCI-H226 lung): > 100 µM
GI50 (NCI-H23 lung): > 100 µM
TGI (NCI-H23 lung): > 100 µM
GI50 (NCI-H460 lung): 6.08 µM
TGI (NCI-H460 lung): > 100 µM
GI50 (NCI-H522 lung): 5.11 µM
TGI (NCI-H522 lung): > 100 µM
GI50 (NCI/ADR-RES ovarian): > 100 µM
TGI (NCI/ADR-RES ovarian): > 100 µM
GI50 (OVCAR-3 ovarian): > 100 µM
TGI (OVCAR-3 ovarian): > 100 µM
GI50 (OVCAR-4 ovarian): > 100 µM
TGI (OVCAR-4 ovarian): > 100 µM
GI50 (OVCAR-8 ovarian): > 100 µM
TGI (OVCAR-8 ovarian): > 100 µM
GI50 (PC-3 prostate): 5.38 µM
TGI (PC-3 prostate): > 100 µM
GI50 (RPMI-8226 leukemia): 0.494 µM
TGI (RPMI-8226 leukemia): 3.26 µM
GI50 (RXF 393 renal): 0.362 µM
TGI (RXF 393 renal): 1.23 µM
GI50 (SF-268 CNS): > 100 µM
TGI (SF-268 CNS): > 100 µM
GI50 (SF-295 CNS): 0.695 µM
TGI (SF-295 CNS): 5.49 µM
GI50 (SF-539 CNS): 2 µM
TGI (SF-539 CNS): > 100 µM
GI50 (SK-MEL-2 melanoma): 2.79 µM
TGI (SK-MEL-2 melanoma): > 100 µM
GI50 (SK-MEL-28 melanoma): > 100 µM
TGI (SK-MEL-28 melanoma): > 100 µM
GI50 (SK-MEL-5 melanoma): 8.09 µM
TGI (SK-MEL-5 melanoma): > 100 µM
GI50 (SN12C renal): > 100 µM
TGI (SN12C renal): > 100 µM
GI50 (SNB-19 CNS): > 100 µM
TGI (SNB-19 CNS): > 100 µM
GI50 (SR leukemia): 2.72 µM
TGI (SR leukemia): > 100 µM
GI50 (SW-620 colon): > 100 µM
TGI (SW-620 colon): > 100 µM
GI50 (T-47D breast): > 100 µM
TGI (T-47D breast): > 100 µM
GI50 (TK-10 renal): 6.18 µM
TGI (TK-10 renal): > 100 µM
GI50 (U251 CNS): 1.84 µM
TGI (U251 CNS): > 100 µM
GI50 (UACC-257 melanoma): > 100 µM
TGI (UACC-257 melanoma): > 100 µM
GI50 (UACC-62 melanoma): 5.27 µM
TGI (UACC-62 melanoma): > 100 µM
GI50 (UO-31 renal): 3.43 µM
TGI (UO-31 renal): > 100 µM
